Measurements published in patent US8722720B2, “Imidazole derivatives as IDO inhibitors” (NewLink Genetics Corporation, priority 2010, dated 2014).

Target: T1, purified human IDO protein (Homo sapiens, UniProt P14902)
T1 construct: 2 extra amino acids (linker from the BglII cloning site of pQE70); made in house; host or cells: E. coli M15(pREP4) with plasmid pQE70-hIDO
Test: Enzymatic IDO assay (kynurenine production, absorbance at 480 nm)
Format: biochemical
Settings: hIDO IC50, recombinant human IDO; values reported in ranges
Summary of the method: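 Inhibitors (final 1 mM to 5 nM, in 50 mM potassium phosphate) preincubated with enzyme 5 min at 25 °C, then 200 μM L-tryptophan added, 15 min at 37 °C. TCA stop and 60 °C hydrolysis to kynurenine, detected with p-dimethylaminobenzaldehyde at 480 nm. IC50 by nonlinear regression.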

T1 sequence (P14902 whole entry P110S/E119G): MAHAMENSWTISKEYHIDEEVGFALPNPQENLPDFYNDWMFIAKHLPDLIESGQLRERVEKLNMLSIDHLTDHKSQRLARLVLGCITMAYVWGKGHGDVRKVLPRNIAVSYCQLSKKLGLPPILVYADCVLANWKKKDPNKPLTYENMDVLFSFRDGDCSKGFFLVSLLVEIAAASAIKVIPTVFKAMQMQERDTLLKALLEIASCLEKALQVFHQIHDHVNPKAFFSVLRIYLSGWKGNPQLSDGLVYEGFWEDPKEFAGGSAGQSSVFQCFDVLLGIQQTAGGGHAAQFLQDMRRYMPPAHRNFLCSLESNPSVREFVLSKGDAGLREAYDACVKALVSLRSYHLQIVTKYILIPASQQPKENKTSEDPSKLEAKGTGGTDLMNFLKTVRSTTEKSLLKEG

| SMILES | IC50 |
| --- | --- |
| O=C1NCCN1C(=O)Oc1ccc(Cl)cc1-c1c[nH]cn1 [compound 1147, 4-chloro-2-(1H-imidazol-4-yl)phenyl 2-oxoimidazolidine-1-carboxylate] | 1 to 10 µM |

Same assay, conditions: recombinant human IDO; values reported in ranges; read-out: hIDO IC50

| SMILES | IC50 |
| --- | --- |
| O=C(Oc1ccc(Cl)cc1-c1c[nH]cn1)N1CCCC1 [compound 1087, 4-chloro-2-(1H-imidazol-4-yl)phenyl pyrrolidine-1-carboxylate] | > 100 µM |
| c1cc(-c2c[nH]cn2)c2[nH]ccc2c1 [compound 948, 7-(1H-imidazol-4-yl)-1H-indole] | 10 to 100 µM |
| c1nc(-c2ccc3c(c2)OCO3)c[nH]1 [compound 955, 4-(benzo[d][1,3]dioxol-5-yl)-1H-imidazole] | > 100 µM |
| CC(=O)NCc1cccc(COc2ccccc2-c2c[nH]cn2)c1 [compound 958, N-(3-((2-(1H-imidazol-4-yl)phenoxy)methyl)benzyl)acetamide] | 10 to 100 µM |
| O=C(O)c1ccc(COc2ccccc2-c2c[nH]cn2)cc1 [compound 1032, lithium 4-((2-(1H-imidazol-4-yl)phenoxy)methyl) benzoate] | 10 to 100 µM |

Continued, values first:

| IC50 | SMILES |
| --- | --- |
| 1 to 10 µM | COC(=O)c1ccc(C(=O)Nc2ccc(CCOc3ccccc3-c3c[nH]cn3)cc2)cc1 [compound 1271, methyl 4-((4-(2-(2-(1H-imidazol-4-yl)phenoxy)ethyl)phenyl)carbamoyl)benzoate] |
| > 100 µM | NC(CCc1ccccc1-c1c[nH]cn1)C(=O)O (stereo not drawn) [compound 1050, lithium 4-(2-(1H-imidazol-4-yl)phenyl)-2-amino-butanoate] |
| < 1 µM | O=C(Cc1cncnc1)Nc1ccc(CCOc2ccccc2-c2c[nH]cn2)c(Cl)c1 [compound 1366, N-(4-(2-(2-(1H-imidazol-4-yl)phenoxy)ethyl)-3-chlorophenyl)-2-(pyrimidin-5-yl)acetamide] |
